What was measured:
CHO-K1 cells = assay: Delivery of reporter mRNA with CPPs in cell culture (luciferase luminescence 24 h post-transfection); type: cell-based
Summary of the method: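 CHO-K1 cells (10,000/well) transfected in 10% FBS DMEM with 0.1 μg firefly luciferase mRNA complexed with CPP at 3:1 charge ratio (peptide excess). Luminescence read in lysates 24 h later, normalised to BCA total protein (RLU/mg).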

[1] = tested on: liver, spleen, lung, kidney, heart and thymus of Balb/c mice; assay: Biodistribution of reporter levels post-transfection of mRNA or pDNA with CPPs in vivo (tissue homogenate)
Protocol: FIG. 3: Biodistribution of reporter levels post-transfection of mRNA or pDNA with NFs or PFs CPPs in vivo. Reporter gene product levels were evaluated from the whole tissue homogenates collected post mortem. Results are shown as the fold change to mRNA or pDNA treated mice.
The transfection complexes (CPP/mRNA) were formed using 10 μg of mRNA mixed with each peptide at indicated charge ratios (CRs) in MQ water in a final volume of 100 μl. CRs were calculated theoretically and account for both the positive charges of the peptide and negative charges of the nucleic acid. The transfection complexes (CPP/mRNA and CPP/pDNA) were formed using 50 μg of mRNA mixed with each peptide at indicated charge ratios (CRs) in MQ water in a final volume of 168 μl. The complexes were incubated for 30 minutes at room temperature and then mixed with equal volume of 10% glucose (resulting in a final solution of 5% glucose in a total volume of 200 μl for 10 μg dose groups and 336 μl for 50 μg dose groups) and immediately injected intravenously via the tail vein.
The reporter gene (luciferase) expression levels were evaluated from the tissue homogenate post mortem 16-24 h after single injection.
In order to determine to which organs in vivo mRNAs may be delivered to with NickFect or PepFect CPPs, mRNA complexes with NF55, NF71 and PF14 were formed and injected through the tail vein of Balb/c mice (FIG. 3A). The organs were harvested 24 hours after the single injection and reporter signal was measured from whole tissue homogenates. The biodistribution of reporter levels was measured in liver, spleen, lung, kidney, heart and thymus.
In order to compare the biodistribution profiles between harvested organs when using either mRNA or pDNA as cargo, NF424 was used to transfect these 2 types of nucleic acids in vivo (FIG. 3B and Table 4).

spleen of BALB/c mice = assay: In vivo delivery of mRNA with CPPs - reporter levels in the spleen
Summary of the method: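 CPP/mRNA complexes were formed at the indicated charge ratios in water for 30 min at room temperature, using 10 or 50 μg mRNA, then brought to 5% glucose. Complexes were injected intravenously via the tail vein into BALB/c mice. Spleens were harvested 16 h after the single injection, and luciferase (RLU) was measured in whole-tissue homogenate.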

[2] = in words; previously reported; cited from earlier work
[3] = mRNA delivery, i.v. tail vein, 24 h after single injection, FIG. 3: fold change to mRNA or pDNA treated mice

CCCCCCCCCCCCCCCCCC(=O)N[C@@H](C)C(=O)NCC(=O)N[C@@H](Cc1ccc(O)cc1)C(=O)N[C@@H](CC(C)C)C(=O)N[C@@H](CC(C)C)C(=O)NCC(=O)NCCC[C@H](N)C(=O)N[C@H](C(=O)N[C@@H](CC(N)=O)C(=O)N[C@@H](CC(C)C)C(=O)N[C@@H](CCCCN)C(=O)N[C@@H](C)C(=O)N[C@@H](CC(C)C)C(=O)N[C@@H](C)C(=O)N[C@@H](C)C(=O)N[C@@H](CC(C)C)C(=O)N[C@@H](C)C(=O)N[C@@H](CCCCN)C(=O)N[C@@H](C)C(=O)N[C@H](C(=O)N[C@@H](CC(C)C)C(N)=O)[C@@H](C)CC)[C@@H](C)CC [NF55]
Average RLU/mg (reporter levels post-transfection of mRNA) (CHO-K1 cells; firefly luciferase mRNA, 0.1 μg per well, charge ratio 3:1, serum containing media, 24 h, RLU normalised to total protein in lysate): 1 270 000 000 RLU/mg | Efficiency of mRNA transfection/delivery (CHO-K1 cells; in words, FIG. 1 / Table 2, cell culture): the most efficient | Organ distribution of mRNA delivery ([1]; in words, mRNA cargo): much higher than in any other organ | Reporter level, Liver [1, 3]: 284 | Reporter level, Lung [1, 3]: 23 465 | Reporter level, Spleen [1, 3]: 79 879 | Delivery of mRNA to the spleen relative to delivery to the lungs ([1]; mRNA, 24 h after single i.v. injection): 3.5 times | Efficacy of mRNA delivery into the spleen in vivo (spleen of BALB/c mice; in words, FIG. 5 / Table 5): delivered mRNA into the spleen in vivo with high efficacy | Reporter levels in the spleen (RLU) (spleen of BALB/c mice; mRNA, tail vein injection, spleens harvested 16 hours after single injection, whole tissue homogenate): 124 363 RLU | pDNA delivery efficiency [2]: excellent vector for the delivery of DNA in vivo

From US20260355330A1, “CELL PENETRATING PEPTIDES AND USES THEREOF” (VECTIOPEP OÜ, priority 2022, published 2026)
